# Test results reported in US20250332143A1, “COMPOSITION COMPRISING ALOX5 INHIBITOR FOR PREVENTING OR TREATING SARCOPENIA” (PLUTO Inc., priority 2022, published 2025).
# Legend:
# aged C57BL/6J mice = assay: Sarcopenia model using aging mice; type: in vivo, mouse
# Description: Male C57BL/6J mice over 21 months of age were divided into 2 groups of 5 and treated with drugs as follows: 1) 0.5% carboxyl methyl with 6.73% DMSO (Vehicle group) and 2) 50 mg/kg of malotilate (at a concentration of 50 mg/kg, 0.5% carboxyl methyl with 6.73% DMSO) (Malotilate group). Those were administered orally daily for 4 weeks. Afterwards, the function and condition of the muscles were analyzed.
# (§1) Grip strength was measured with the BIO-GS3 grip strength test meter (Bioseb, FL, USA). Grip strength was measured by placing the mouse on a grid and gently pulling it back with all four paws until the mouse fell off the grid. The trials were conducted with a time interval of 30 seconds, and the largest value among the three trials was selected as the representative muscle strength.
# (§2) Muscle fatigue was measured from two different models using Rotarod (Ugo Basile, Italy). One is a constant speed model that measures how long movement can be continued on a cylinder rotating at a constant speed, and the other model is an acceleration model that measures how fast the mouse can continue movement when the speed of the cylinder increases at regular intervals. Mice were trained to adapt from 5 rpm to 15 rpm one day before measurement in the above two models.
# Before sacrifice, mice were anesthetized by intraperitoneally administering 22 mg/kg Ketamine (Yuhan, Republic of Korea) and 10 mg/kg xylazine (Bayer, Republic of Korea) by IP injection, and then samples were collected. Quadriceps, gastrocnemius, tibialis anterior and soleus muscles were sampled and their weights were measured. The muscles sampled for immunohistostaining were cultured overnight at 4° C. with 4% paraformaldehyde, fixed, embedded in paraffin solution, and stored at −80° C. Cutting and hematoxylin & eosin staining were carried out at the Animal Research Facility of the Gwangju Institute of Science and Technology, Republic of Korea. Hematoxylin & eosin staining was performed using the kit (Merck, Germany). The cross-sectional area of muscle fibers was measured using ImageJ 1.48 software (National Institutes of Health, USA).
# Immunohistochemical staining was performed using myosin heavy chain types 2A and 2B (DSHB, IA, USA) and anti-laminin antibody (Abcam, Cambirdge, UK). Counterstain was stained with 1 μM DAPI solution. The cross-sectional area of muscle fibers was visualized using LEICA DM 2500 (Leica, Germany) and then measured using ImageJ 1.48 software (National Institutes of Health, USA).
# atrogin-1 and MuRF-1 = assay: qPCR of atrogin-1 and MuRF-1 in human myotubes; type: cell-based
# Description: For quantitative real-time PCR, transcript levels of genes of interest were analyzed using the StepOnePlus real-time PCR system (Applied Biosystems, UK). Total RNA was reverse transcribed to prepare cDNA using AccuPower® RT PreMix (Bioneer Corporation). The obtained cDNA was subjected to real-time PCR according to the manufacturer's instructions with the following changes. PCR was performed in triplicate in a total volume of 20 μL 2× Power SYBR Green PCR Master Mix (Enzynomics, Republic of Korea) containing 200 nM (final concentration) of each specific primer and 1 μL of cDNA synthesized from 1 μg of total RNA. […] Denaturation was performed at 95° C. for 15 s, annealing was performed at 60° C. for 1 min, and extension was performed at 72° C. for 20 s with fluorescence detection at 72° C. after each cycle. After the final cycle, melting point analysis of all samples was performed within the range of 60 to 95° C. using continuous fluorescence detection. […] Results were expressed as relative expression levels for each gene. The synthesized cDNA was amplified by quantitative real-time PCR (qRT-PCR) or standard PCR.
# Human-derived myoblasts were purchased from Thermo-Fisher Scientific (USA). […] Myotubes were stained with H&E. After light microscopy analysis of DIC captured images (Olympus CKX41), myotubes were measured using ImageJ 1.48 software (National Institutes of Health, USA).
# [1] = tested on: Dex-treated C57BL/6J mice; assay: Dexamethasone-induced sarcopenia mouse model; type: in vivo
# Description: For quantitative real-time PCR, transcript levels of genes of interest were analyzed using the StepOnePlus real-time PCR system (Applied Biosystems, UK). Total RNA was reverse transcribed to prepare cDNA using AccuPower® RT PreMix (Bioneer Corporation). The obtained cDNA was subjected to real-time PCR according to the manufacturer's instructions with the following changes. PCR was performed in triplicate in a total volume of 20 μL 2× Power SYBR Green PCR Master Mix (Enzynomics, Republic of Korea) containing 200 nM (final concentration) of each specific primer and 1 μL of cDNA synthesized from 1 μg of total RNA. PCR amplification consisted of incubating the mixture at 95° C. for 10 minutes, followed by 40 cycles of denaturation, annealing, and extension. Denaturation was performed at 95° C. for 15 s, annealing was performed at 60° C. for 1 min, and extension was performed at 72° C. for 20 s with fluorescence detection at 72° C. after each cycle. After the final cycle, melting point analysis of all samples was performed within the range of 60 to 95° C. using continuous fluorescence detection. Specific cDNA samples were included in each run and used as reference material for comparison between runs. The expression level of GAPDH was used to calculate and normalize the expression levels of all other genes. Results were expressed as relative expression levels for each gene. The synthesized cDNA was amplified by quantitative real-time PCR (qRT-PCR) or standard PCR.
# An LTB4 ELISA kit was purchased from MyBioSource (CA, USA). The concentrations of LTB4 in skeletal muscles and cell lysates were measured by the enzyme-linked […] method according to the manufacturer's instructions. Samples (100 μL) were maintained at room temperature (RT) for 1 hour in 96 wells with polyclonal LTB4 antibody. Afterwards, an enzymatic reaction was performed to stop the process, and the absorbance was measured at 405 nm.
# 8. Dexamethasone-Induced Sarcopenia Mouse Model 12-week-old male C57BL/6J mice were divided into 3 groups of 5 each and treated with drugs as follows: 1) PBS with 5% DMSO and 5% Tween 80 (Vehicle group); 2) 15 mg/kg of Dexamethasone (at a concentration of 15 mg/kg, in PBS containing 5% DMSO and 5% Tween 80) (Dexamethasone group); and 3) 10 mg/kg of malotilate (at a concentration of 10 mg/kg, in PBS containing 15 mg/kg Dexamethasone, 5% DMSO, and 5% Tween 80) (Malotilate group). Those were injected intraperitoneally (solution volume=200 μL) for 2 weeks. Afterwards, the muscle function and conditions of the mice were analyzed.
# as §1, §2
# Before sacrifice, mice were anesthetized by intraperitoneally administering 22 mg/kg Ketamine (Yuhan, Republic of Korea) and 10 mg/kg xylazine (Bayer, Republic of Korea) by IP injection, and then samples were collected. Quadriceps, gastrocnemius, tibialis anterior and soleus muscles were sampled and their weights were measured. The muscles sampled for immunohistostaining were cultured overnight at 4° C. with 4% paraformaldehyde, fixed, embedded in paraffin solution, and stored at −80° C. […]
# [2] = aged mice, 50 mg/kg orally daily, 4 weeks
# [3] = Dex-treated mice, 10 mg/kg intraperitoneally, 2 weeks
# [4] = Dex-treated mice, quadriceps, mRNA
compound,measurement,setting,value
"CC(C)OC(=O)C(C(=O)OC(C)C)=C1SC=CS1 [malotilate, Malotilate]",grip strength,aged C57BL/6J mice; [2],significantly increased
same,mean latency to fall,aged C57BL/6J mice; [2],increased in malotilate-treated mice but did not reach statistical significance
same,quadriceps muscle mass,aged C57BL/6J mice; [2],significantly increased
same,soleus muscle mass,aged C57BL/6J mice; [2],significantly increased
same,CSA of fast twitch fibers (types IIA and IIB),"aged C57BL/6J mice; aged mice, immunohistology",preserves
same,average muscle fiber cross-sectional area,"aged C57BL/6J mice; aged mice, quadriceps",increased
same,proportion of large myofibers (>5000 μm^2),"aged C57BL/6J mice; aged mice, quadriceps",much larger proportion
same,skeletal muscle atrophy,aged C57BL/6J mice; animal model of sarcopenia due to aging,inhibited
same,MuRF-1 expression,atrogin-1 and MuRF-1,significantly reduced
same,atrogin-1 expression,atrogin-1 and MuRF-1,significantly reduced
same,grip strength,[1]; [3],significantly increased
same,"latency to fall, rotarod",[1]; [3],significantly increased
same,"maximum velocity, rotarod",[1]; [3],significantly increased
same,quadriceps muscle mass,[1]; [3],increased
same,soleus muscle mass,[1]; [3],increased
same,LTB4 level in muscle (ELISA),"[1]; Dex-treated mice, quadriceps",lowered
same,average muscle fiber cross sectional area (CSA),"[1]; Dex-treated mice, quadriceps",increased
same,proportion of fibers with larger CSA,"[1]; Dex-treated mice, quadriceps",increased
same,MuRF-1 expression in muscle,[1]; [4],reduced
same,atrogin-1 expression in muscle,[1]; [4],reduced
same,skeletal muscle atrophy,[1]; animal model of sarcopenia due to Dex treatment,inhibited
